Measurements as given in patent US20250276964A1 (Novartis AG, priority 2021, published 2025).
Structures can show the parent of a compound that is named as a salt.

Target: T1, WIZ (Homo sapiens, UniProt O95785+Q96SW2)
T1 construct: expressed in transfected cells
Test: Quantification of WIZ protein levels in HiBit tag fusion protein assay (WIZ HiBit assay in 293T cells)
Type: cell-based
Details: for Dmax at 25 µM / remaining activity at 25 µM: HEK-293T; for Dmax at 25 µM / % degradation of WIZ (100-Amax): 100 minus Amax at 25 uM; for Dmax at 25 µM: read-out: % degradation of WIZ (100-Amax); for remaining activity at 25 µM / WIZ Amax: DMSO-normalized, curve-fitted percentage of WIZ-HiBit remaining at 25 uM; for remaining activity at 25 µM: read-out: WIZ Amax; for DC50: WIZ HiBit assay in 293T cells, 10-point, 5-fold dilution, highest concentration 25 μM, about 18 hours, read-out: WIZ AC50
Experimental: The HiBit system from Promega was used to develop high-throughput and quantitative assays to measure changes in WIZ protein levels in response to compounds. The HiBit tag was derived from a split Nanoluciferase and has the following protein sequence: […] (SEQ ID NO: 1). The complementary fragment of Nanoluciferase (known as LgBit, from Promega), was added to the HiBit tag to form an active Nanoluciferase enzyme whose activity can be precisely measured. In this way, the levels of a fusion protein with the HiBit tag can be quantified in cell lysates.
Lentiviral vectors, based on the Invitrogen™ pLenti6.2/V5 DEST backbone were constructed that places the HiBit tag upstream of WIZ and expressed the fusion protein from an HSVTK promotor.
To ensure moderate and consistent expression of the HiBit-WIZ fusion protein across all cells in the population, stable cell lines were constructed from cells harboring a single copy of the construct. Lentivirus packaged with the constructs were made using the ViraPower™kit from Invitrogen™. 293T cells from ATCC (Catalog number: CRL-3216), were infected with the virus at low multiplicity of infection and selected by 5 μg/mL blasticidin in culture media for 2 weeks.
The levels of HiBit-WIZ tagged fusion proteins in compound-treated cell lines were measured as follows:
On day 1, cells were diluted to 1.0×10^6 cells/ml in normal growth medium. 20 μL of cell suspension were plated in each well of a solid white 384-well plate. Plates were incubated overnight in a 37° C. and 5% CO2 humidified tissue culture incubator.
On day 2, serial dilutions of compounds were made in 384-well plates. Compound plates were set up with DMSO in columns 1, 2, 23, 24, and 10-point compound dilution series in column 3-12 and column 13-22. 10 mM stock solution of compound were placed into column 3 or 13 and a 1:5 serial dilution was carried out until there was a 10-point dilution series per compound. 50 nL of diluted compounds were transferred into the plated cells by Echo® (Labcyte) acoustic transfer. The highest concentration of compound was 25 μM. Plates were incubated overnight (about 18 hours) in a 37° C. and 5% CO2 humidified tissue culture incubator.
On day 3, plates were removed from the incubator and allowed to equilibrate at room temperature for 60 minutes. HiBit substrate (Nano-Glo® HiBit Lytic Detection System, Promega Catalogue number: N3050) was added as described by the manufacturers protocols. Plates were incubated at room temperature for 30 minutes and luminescence was read using an EnVision® reader (PerkinElmer®). Data was analyzed and visualized using the Spotfire® software package.
WIZ Amax reflects the DMSO-normalized, curve-fitted percentage of WIZ-HiBit remaining at 25 uM. It was calculated by normalizing DMSO controls to 100%, parametric curve fitting of the dose response data (10-point, 5-fold), followed by calculation of response at 25 uM using the fitted equation (nd=not determined).

T1 sequence (O95785 whole entry): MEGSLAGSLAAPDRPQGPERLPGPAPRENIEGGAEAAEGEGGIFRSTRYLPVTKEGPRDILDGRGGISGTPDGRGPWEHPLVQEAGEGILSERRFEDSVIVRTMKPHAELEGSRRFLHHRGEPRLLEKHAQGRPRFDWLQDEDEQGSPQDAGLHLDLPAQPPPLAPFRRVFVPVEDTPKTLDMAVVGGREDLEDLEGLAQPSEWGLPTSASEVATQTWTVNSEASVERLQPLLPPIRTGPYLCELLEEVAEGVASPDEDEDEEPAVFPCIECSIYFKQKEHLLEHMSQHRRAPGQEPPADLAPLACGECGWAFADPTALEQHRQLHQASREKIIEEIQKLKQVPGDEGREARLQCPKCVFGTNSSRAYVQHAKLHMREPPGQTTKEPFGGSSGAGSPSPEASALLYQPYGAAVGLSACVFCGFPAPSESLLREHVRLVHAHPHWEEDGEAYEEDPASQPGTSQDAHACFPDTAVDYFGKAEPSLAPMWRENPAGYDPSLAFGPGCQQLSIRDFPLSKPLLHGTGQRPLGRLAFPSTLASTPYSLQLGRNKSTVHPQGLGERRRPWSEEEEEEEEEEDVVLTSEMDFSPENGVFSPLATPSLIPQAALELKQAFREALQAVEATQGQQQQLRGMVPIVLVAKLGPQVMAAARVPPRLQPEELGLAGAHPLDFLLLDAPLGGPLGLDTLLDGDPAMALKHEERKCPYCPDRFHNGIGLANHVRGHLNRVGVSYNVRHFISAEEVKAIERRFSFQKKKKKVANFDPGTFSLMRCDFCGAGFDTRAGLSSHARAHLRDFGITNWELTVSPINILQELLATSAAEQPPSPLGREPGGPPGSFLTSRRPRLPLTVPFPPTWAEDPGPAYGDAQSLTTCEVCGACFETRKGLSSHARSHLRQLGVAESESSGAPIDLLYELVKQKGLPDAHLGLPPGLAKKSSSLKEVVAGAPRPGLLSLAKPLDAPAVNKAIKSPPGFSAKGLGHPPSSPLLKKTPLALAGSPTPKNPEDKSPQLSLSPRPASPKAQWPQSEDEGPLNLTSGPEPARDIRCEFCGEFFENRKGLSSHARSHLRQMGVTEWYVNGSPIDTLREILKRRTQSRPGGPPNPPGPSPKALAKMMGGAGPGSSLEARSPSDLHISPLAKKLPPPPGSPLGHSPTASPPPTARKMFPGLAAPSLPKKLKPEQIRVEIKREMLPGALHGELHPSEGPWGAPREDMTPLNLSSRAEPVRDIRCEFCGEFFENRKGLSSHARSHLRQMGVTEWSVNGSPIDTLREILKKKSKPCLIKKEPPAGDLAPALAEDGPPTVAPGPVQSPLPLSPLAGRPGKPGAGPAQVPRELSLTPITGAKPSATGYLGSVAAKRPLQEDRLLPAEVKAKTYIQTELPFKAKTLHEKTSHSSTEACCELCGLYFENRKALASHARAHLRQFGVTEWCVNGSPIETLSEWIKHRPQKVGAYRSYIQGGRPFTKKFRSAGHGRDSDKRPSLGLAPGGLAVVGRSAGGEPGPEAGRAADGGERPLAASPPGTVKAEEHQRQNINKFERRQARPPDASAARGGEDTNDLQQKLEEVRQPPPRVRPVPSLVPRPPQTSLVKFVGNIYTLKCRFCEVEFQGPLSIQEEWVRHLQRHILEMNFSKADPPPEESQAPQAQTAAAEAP
T1 sequence (Q96SW2 whole entry): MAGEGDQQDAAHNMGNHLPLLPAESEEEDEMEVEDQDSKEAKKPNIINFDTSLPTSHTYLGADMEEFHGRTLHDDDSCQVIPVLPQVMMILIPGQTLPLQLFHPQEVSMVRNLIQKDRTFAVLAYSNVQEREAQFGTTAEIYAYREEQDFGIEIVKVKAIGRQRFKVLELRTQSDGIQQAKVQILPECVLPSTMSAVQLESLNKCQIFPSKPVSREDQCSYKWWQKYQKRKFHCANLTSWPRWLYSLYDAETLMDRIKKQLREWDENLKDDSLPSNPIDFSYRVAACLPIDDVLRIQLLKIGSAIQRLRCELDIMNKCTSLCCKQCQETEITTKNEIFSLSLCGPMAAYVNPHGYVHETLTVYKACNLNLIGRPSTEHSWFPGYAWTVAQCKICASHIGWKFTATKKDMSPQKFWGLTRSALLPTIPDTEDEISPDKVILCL
T1 sequence (Q16531 whole entry partner): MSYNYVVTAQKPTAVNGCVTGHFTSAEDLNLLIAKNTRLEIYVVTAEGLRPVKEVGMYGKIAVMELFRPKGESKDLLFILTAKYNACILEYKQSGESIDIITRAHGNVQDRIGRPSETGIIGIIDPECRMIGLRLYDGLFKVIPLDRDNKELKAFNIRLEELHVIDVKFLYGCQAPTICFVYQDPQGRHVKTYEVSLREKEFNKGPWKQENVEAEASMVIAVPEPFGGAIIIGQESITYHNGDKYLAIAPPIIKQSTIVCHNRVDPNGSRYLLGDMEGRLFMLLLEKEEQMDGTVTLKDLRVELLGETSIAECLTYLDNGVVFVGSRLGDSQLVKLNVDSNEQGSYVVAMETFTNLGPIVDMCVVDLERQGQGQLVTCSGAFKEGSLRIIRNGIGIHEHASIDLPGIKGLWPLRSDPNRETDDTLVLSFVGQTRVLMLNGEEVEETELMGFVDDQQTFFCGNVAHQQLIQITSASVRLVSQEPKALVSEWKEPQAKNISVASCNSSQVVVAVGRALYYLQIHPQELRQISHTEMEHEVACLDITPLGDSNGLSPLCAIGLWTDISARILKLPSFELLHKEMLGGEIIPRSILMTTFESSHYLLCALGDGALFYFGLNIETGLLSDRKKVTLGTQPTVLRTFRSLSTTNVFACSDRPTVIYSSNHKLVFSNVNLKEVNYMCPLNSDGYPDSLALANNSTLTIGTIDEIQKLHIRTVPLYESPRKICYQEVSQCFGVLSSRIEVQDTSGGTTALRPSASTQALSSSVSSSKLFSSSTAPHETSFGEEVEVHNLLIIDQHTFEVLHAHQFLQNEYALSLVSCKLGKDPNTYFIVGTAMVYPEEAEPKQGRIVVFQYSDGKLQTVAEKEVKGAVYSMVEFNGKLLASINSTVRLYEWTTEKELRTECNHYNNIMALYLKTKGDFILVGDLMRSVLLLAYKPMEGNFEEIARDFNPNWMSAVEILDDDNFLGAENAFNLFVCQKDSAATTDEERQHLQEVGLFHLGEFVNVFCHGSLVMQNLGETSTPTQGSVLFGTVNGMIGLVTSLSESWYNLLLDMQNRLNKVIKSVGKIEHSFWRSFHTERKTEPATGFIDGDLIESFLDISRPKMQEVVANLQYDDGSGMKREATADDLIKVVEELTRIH

Compound | Dmax at 25 µM | remaining activity at 25 µM | DC50 | % degradation of WIZ (100-Amax) | WIZ Amax
C[C@H]1CN(S(C)(=O)=O)[C@@H](C)CN1Cc1ccc2onc(N3CCC(=O)NC3=O)c2c1 [Example 105, 1-(5-(((2S,5S)-2,5-dimethyl-4-(methylsulfonyl)piperazin-1-yl)methyl)benzo[d]isoxazol-3-yl)dihydropyrimidine-2,4(1H,3H)-dione] | 75% | 25% | 373 nM |  | 
CN1C[C@H]2CC[C@@H](C1)N2Cc1ccc2onc(N3CCC(=O)NC3=O)c2c1 [Example 103, 1-(5-(((1R,5S)-3-methyl-3,8-diazabicyclo[3.2.1]octan-8-yl)methyl)benzo[d]isoxazol-3-yl)dihydropyrimidine-2,4(1H,3H)-dione] | 86% | 14% | 68 nM |  | 
O=C1CCN(c2noc3ccc(CC4CCN(CC5CCCCC5)CC4)cc23)C(=O)N1 [Example 1, 1-(5-((1-(cyclohexylmethyl)piperidin-4-yl)methyl)benzo[d]isoxazol-3-yl)dihydropyrimidine-2,4(1H,3H)-dione] | 91% | 9% | 7.2 nM |  | 
C[C@H]1CN(Cc2ccc3onc(N4CCC(=O)NC4=O)c3c2)CCN1CC1CCOCC1 [Example 31, (S)-1-(5-((3-methyl-4-((tetrahydro-2H-pyran-4-yl)methyl)piperazin-1-yl)methyl)benzo[d]isoxazol-3-yl)dihydropyrimidine-2,4(1H,3H)-dione] | 91% | 9% | 6.9 nM |  | 
C[C@@H]1CN(C2CCOCC2)CCN1Cc1ccc2onc(N3CCC(=O)NC3=O)c2c1 [Example 78, (R)-1-(5-((2-methyl-4-(tetrahydro-2H-pyran-4-yl)piperazin-1-yl)methyl)benzo[d]isoxazol-3-yl)dihydropyrimidine-2,4(1H,3H)-dione] | 80% | 20% | 37 nM |  | 
CN1[C@@H]2CC[C@H]1CC(Cc1ccc3onc(N4CCC(=O)NC4=O)c3c1)C2 (stereo partly drawn) [Example 58, 1-(5-(((1R,5S)-8-methyl-8-azabicyclo[3.2.1]octan-3-yl)methyl)benzo[d]isoxazol-3-yl)dihydropyrimidine-2,4(1H,3H)-dione] | 89% | 11% | 20 nM |  | 
CS(=O)(=O)N1C[C@H]2CC[C@@H](C1)N2Cc1ccc2onc(N3CCC(=O)NC3=O)c2c1 [Example 104, 1-(5-(((1R,5S)-3-(methylsulfonyl)-3,8-diazabicyclo[3.2.1]octan-8-yl)methyl)benzo[d]isoxazol-3-yl)dihydropyrimidine-2,4(1H,3H)-dione] | 85% | 15% | 181 nM |  | 
O=C1CCN(c2noc3ccc(CC4C[C@H]5CC[C@@H](C4)N5)cc23)C(=O)N1 (stereo partly drawn) [Example 57, 1-(5-(((1R,5S)-8-azabicyclo[3.2.1]octan-3-yl)methyl)benzo[d]isoxazol-3-yl)dihydropyrimidine-2,4(1H,3H)-dione] |  |  | 649 nM | 80% | 20%
CC(C)(C)OC(=O)N1[C@@H]2CC[C@H]1CC(Cc1ccc3onc(N4CCC(=O)NC4=O)c3c1)C2 (single isomer, unassigned) [Example 55] |  |  | 3200 nM | 70% | 30%
CC(C)N1CCN(Cc2ccc3onc(N4CCC(=O)NC4=O)c3c2)[C@H](C)C1 [Example 69, (R)-1-(5-((4-isopropyl-2-methylpiperazin-1-yl)methyl)benzo[d]isoxazol-3-yl)dihydropyrimidine-2,4(1H,3H)-dione] | 83% | 17% | 45 nM |  | 

Continued, in another order:

Dmax at 25 µM | remaining activity at 25 µM | DC50 | Compound | % degradation of WIZ (100-Amax) | WIZ Amax
88% | 12% | 210 nM | O=C1CCN(c2noc3ccc(CC4CCNCC4)cc23)C(=O)N1 [Example 1b, 1-(5-(piperidin-4-ylmethyl)benzo[d]isoxazol-3-yl)dihydropyrimidine-2,4(1H,3H)-dione hydrochloride] |  | 
78% | 22% | 448 nM | CN1CCC(Cc2ccc3onc(N4CCC(=O)NC4=O)c3c2)C1 (stereo not drawn) [Example 50, 1-(5-((1-methylpyrrolidin-3-yl)methyl)benzo[d]isoxazol-3-yl)dihydropyrimidine-2,4(1H,3H)-dione] |  | 
87% | 13% | 130 nM | O=C1CCN(c2noc3ccc(CN4CCN(Cc5ccccc5)CC4)cc23)C(=O)N1 [Example 25, 1-(5-((4-benzylpiperazin-1-yl)methyl)benzo[d]isoxazol-3-yl)dihydropyrimidine-2,4(1H,3H)-dione] |  | 
85% | 15% | 65 nM | O=C1CCN(c2noc3ccc(CN4CCN5CCOC[C@H]5C4)cc23)C(=O)N1 [Example 110, (R)-1-(5-((hexahydropyrazino[2,1-c][1,4]oxazin-8(1H)-yl)methyl)benzo[d]isoxazol-3-yl)dihydropyrimidine-2,4(1H,3H)-dione] |  | 
91% | 9% | 149 nM | CC(c1ccc2onc(N3CCC(=O)NC3=O)c2c1)N1CCN(C)CC1 (stereo not drawn) [Example 127, 1-(5-(1-(4-methylpiperazin-1-yl)ethyl)benzo[d]isoxazol-3-yl)dihydropyrimidine-2,4(1H,3H)-dione] |  | 
85% | 15% | 115 nM | COC[C@H]1CN(Cc2ccc3onc(N4CCC(=O)NC4=O)c3c2)CCN1CC(C)C [Example 114, (R)-1-(5-((4-isobutyl-3-(methoxymethyl)piperazin-1-yl)methyl)benzo[d]isoxazol-3-yl)dihydropyrimidine-2,4(1H,3H)-dione] |  | 
89% | 11% | 59 nM | CN1CC2CCC1CN2Cc1ccc2onc(N3CCC(=O)NC3=O)c2c1 (single isomer, unassigned) [Example 123, 1-(5-((5-methyl-2,5-diazabicyclo[2.2.2]octan-2-yl)methyl)benzo[d]isoxazol-3-yl)dihydropyrimidine-2,4(1H,3H)-dione] |  | 
83% | 17% | 28 nM | CC(C)[C@@H]1CN(C)CCN1Cc1ccc2onc(N3CCC(=O)NC3=O)c2c1 [Example 89, (R)-1-(5-((2-isopropyl-4-methylpiperazin-1-yl)methyl)benzo[d]isoxazol-3-yl)dihydropyrimidine-2,4(1H,3H)-dione] |  | 
76% | 24% | 140 nM | CC(C)[C@H]1CN(Cc2ccc3onc(N4CCC(=O)NC4=O)c3c2)CCN1CC1CCOCC1 [Example 38, (S)-1-(5-((3-isopropyl-4-((tetrahydro-2H-pyran-4-yl)methyl)piperazin-1-yl)methyl)benzo[d]isoxazol-3-yl)dihydropyrimidine-2,4(1H,3H)-dione] |  | 
87% | 13% | 392 nM | CC(C)(C)OC(=O)N1CCCC(Cc2ccc3onc(N4CCC(=O)NC4=O)c3c2)CC1 (stereo not drawn) [Example 51, tert-butyl 4-((3-(2,4-dioxotetrahydropyrimidin-1 (2H)-yl)benzo[d]isoxazol-5-yl)methyl)azepane-1-carboxylate] |  | 
69% | 31% | 577 nM | C[C@@H]1CN(C)C[C@H](C)N1Cc1ccc2onc(N3CCC(=O)NC3=O)c2c1 [Example 108, 1-(5-(((2R,6S)-2,4,6-trimethylpiperazin-1-yl)methyl)benzo[d]isoxazol-3-yl)dihydropyrimidine-2,4(1H,3H)-dione] |  | 
91% | 9% | 14 nM | CC(C)CN1CCC(Cc2ccc3onc(N4CCC(=O)NC4=O)c3c2)CC1 [Example 5, 1-(5-((1-isobutylpiperidin-4-yl)methyl)benzo[d]isoxazol-3-yl)dihydropyrimidine-2,4(1H,3H)-dione] |  | 
